Experimental data as given in patent publication US9115082B2, “Dipeptidyl-peptidase-IV inhibitors for treatment of type 2 diabetes complex with hypertension” (priority 2012, dated 2015).

Test system: blood glucose
Assay: oral glucose tolerance test in diet-induced obese mice
Assay type: in vivo, Male C57BL/6 mice
Conditions: fasted DIO mice, 1 hour before glucose (2 g/kg) challenge
Experimental: Specifically, an oral glucose tolerance test in diet-induced obese mice were conducted. Male C57BL/6 mice (6-8 weeks of age) were used. Mice were fed a lean (control group) or high-fat (DIO group) diet (5 and 35% fat by weight, respectively) for 6-9 weeks and then administered an oral glucose tolerance test. […] Blood glucose was determined at various time points from tail bleeds using a glucometer. The blood glucose response curve (AUC's, t==2 hours) are 18.7±1.6, 20.1±0.7, 21.3±11.5 for above three groups, respectively.

Cl.N#CC1CCCN1C(=O)CNCC(O)COc1ccccc1 (stereo not drawn) [compound 7, 1-(2-(2-hydroxy-3-phenoxypropylamino)acetyl)pyrrolidine-2-carbonitrile hydrochloride]
blood glucose response curve (AUC's, t==2 hours) (3 mg/kg oral): 21.3±11.5 | blood glucose response curve (AUC's, t==2 hours) (10 mg/kg oral): 20.1±0.7 | blood glucose response curve (AUC's, t==2 hours) (30 mg/kg oral): 18.7±1.6
